# Values quoted from earlier work as cited in patent US20250195352A1, “LIPID FORMULATIONS CONTAINING BIOACTIVE FATTY ACIDS AND OTHER BIOACTIVE AGENTS” (Sciadonics, Inc., priority 2022, published 2025).
# Legend:
# [1] = system: PPAR receptors; conditions: unmetabolized SA; Berger 2002
# [2] = system: cultured human skin keratinocytes; conditions: purified SA taken up by cultured human skin keratinocytes; Berger 2002
smiles,measurement,setting,value
"CCCCCC=CCC=CCCCCC=CCCCC(=O)O [SA, 5,11,14-eicosatrienoic acid]",binding to PPAR receptors,[1],does not bind
same,ARA levels,[2],reduced
same,prostaglandin E2 (PGE2) levels,[2],reduced
